Entries after “also recorded” stand apart in the source; their conditions may differ. Where two headings read alike, the source gives them in different places.
Tests used:
ASTs = experiment: Methylene blue counts of individual cell types: ASTs; type: cell-based, rat; settings: BM-D9, 24 h
Description: (§1) Methylene blue (3,7-bis (dimethylamino)-phenothiazin-5-ium chloride), a ribonucleic acid (RNA) binding agent commonly used as an alternative nucleic acid stain, can also be used as a biological staining agent to stain cells in order to observe their morphological features. At 24 h, cells were fixed in 2% paraformaldehyde for 15 min at room temperature. Briefly, cells were washed twice with PBS and 100 μl of 1% methylene blue (Mallinckrodt Chemical Co., MO, USA) solution containing 1% AgNO3 was added for 10 min to the wells containing coverslips. Subsequently, the coverslips were washed with two changes of distilled water and absolute ethanol, cleared with xylene and mounted on slides with permount.
(§2) Cell counts were performed for 25 randomly chosen 100 power fields on each coverslip. Two randomly generated coordinates drawn from a uniform distribution of random numbers specified the center of each field. The random numbers were generated on a computer by using Microcal Origin 4.0 program. […] Three coverslips was counted for each treatment condition. In subsequent experiments, different cell types (for example, O-2A progenitors, PROLs, OLs and astrocytes) were morphologically identified on each field and were counted separately for experimental series-I and II. […]

O-2As = experiment: Methylene blue counts of individual cell types: O-2As; type: cell-based, rat; settings: BM-D9, 24 h
Description: as §1, §2

PROLs = experiment: Methylene blue counts of individual cell types: PROLs; type: cell-based, rat; settings: BM-D9, 24 h
Description: as §1, §2

OLs = experiment: Methylene blue counts of individual cell types: OLs; type: cell-based, rat; settings: BM-D9, 24 h
Description: as §1, §2

oligodendroglial cells [1] = experiment: In situ DNA end labeling (ApopTag), counts of apoptotic nuclei; type: cell-based, rat; settings: 6, 12, 15, 18, 24 h, both experimental series
Description: The ApopTag™ method utilizes an ApopTag™ in situ apoptosis detection kit (Oncor, Md., USA), which detects nuclei with, cut 3′-OH ends of DNA. Oligodendrocytes at 16 DIV were treated with BM, BM-D9, IM and IM-D9 for 6, 12, 15, 18 and 24 h. Cells were fixed in 2% paraformaldehyde, followed by three washes in 0.1M PBS and permeabilization with 0.05% Tween-20 in PBS for 10 min at room temperature. Endogenous peroxidase was quenched with 1% H2O2 in PBS for 5 min at room temperature. Coverslips were then covered with 1 X equilibration buffer for 30 min at room temperature and then incubated with terminal deoxynucleotidyl transferase (TdT)/reaction buffer (76 μl of reaction buffer+32 μl of TdT enzyme) for 1 h at 37° C. A stop wash buffer incubation for 30 min at 37° C. was used to terminate the 3′-OH DNA extension reaction. After a PBS wash, the coverslips were incubated with antidigoxigenin peroxidase antibody. After three washes with 0.1M PBS, chromogenic detection was carried out using DAB (1.5 mg/ml) mixed with hydrogen peroxide (H2O2; 0.02% v/v) yielding a brown reaction product. Coverslips were dehydrated in ascending grade alcohol series, cleared with xylene and mounted on slides using a drop of permount. ApopTag™ positive nuclei were randomly counted in triplicate (described in section 2.5), for each of the time points, for experimental series-I and II.

oligodendroglial cells [2] = experiment: DNA extraction and electrophoresis (DNA ladders); type: cell-based, rat; settings: BM + 10^−9 M, 18 h after washing on 16 DIV
[3] = test system: MBP, PLP, GC and CNPase-I; experiment: Western blot of PROL and OL marker proteins; type: cell-based, rat; settings: BM + 10^−9 M, 18 h
[4] = test system: mitochondrial membrane potential (ΔψM) of oligodendroglial cells; experiment: CMTMR estimation of mitochondrial membrane potential by confocal microscopy; type: cell-based, rat; settings: BM + 10^−9 M, 18 h
Description: The ΔψM was assessed by the addition of a lipophilic, potentiometric dye, chloromethyl-tetramethylrhodamine methyl ester (CMTMR, Mitotracker Orange™ Molecular Probes, Eugene, Oreg.). The CMTMR dye reacts with the thiol groups on proteins and peptides to form aldehyde fixable conjugates. Entry of the negatively charged mitochondrial matrix compartment is proportional to the difference in the membrane potential. Therefore, the CMTMR fluorescence labels the mitochondrial membrane potential generated due to the negativity difference between the mitochondrial matrix and the outside of the mitochondria. Upon cell fixation, CMTMR remains in the mitochondria and is not washed out unlike other mitochondrial potentiometric dyes like rhodamine123.
Oligodendrocytes at 16 DIV were placed in trophically deprived BM for 18 h or treated with BM-D9 or BM-Ds9. […] The cells were incubated in CMTMR at 37° C. for 15 min. The cells were then fixed with 4% cold paraformaldehyde on ice for 30 min and washed twice with 0.1M PBS. Consequently, the coverslips were mounted on glass slides with Aquamount (Gurr, England).
Individual mitochondria labeled with CMTMR were resolved by confocal microscopy. A Leica true confocal scanning (TCS) 4D microscope coupled to an argon-krypton laser (Omnichrome, USA) was used for cell imaging. A pinhole size of 20 with an excitation filter wavelength of 568 nm and an emission filter wavelength of 590 nm was used to image the CMTMR labeled mitochondria. Each field of the coverslip was imaged using an oil-immersion, 100 X, 1.3 N.A. objective at 512 by 512 by 8 bits per pixel resolution, background offset of −1 and line averaged 32 times in bi-directional line scan mode. Care was taken not to exceed the dynamic range of the gray value display. The confocal images obtained were saved on an optical drive in a tagged image file format (TIFF).
Fluorescence intensity of individual mitochondria was measured using the Metamorph™ program. Metamorph™ compiles measurements of objects in a 8-bit image ranging from gray values 0 (background) and 255. In order to obtain fluorescence intensity measures, a rectangular region tool of 2×2 pixels was used to measure two randomly selected areas within each mitochondrion. A total of ten mitochondria obtained equally from all the regions of each cell were measured within each image. About 20 images were analyzed for each treatment condition thereby giving a sum of about 400 mitochondrial fluorescence intensity measures. The raw values were then further graphed and analyzed with the Microcal Origin 4.1 program. Frequency count was performed on the data, which classified the data in ordered bins. A frequency distribution was obtained with lower bin value set at 0 and higher bin value set at 260.

CA1 hippocampal neurons = settings: cited from earlier work
[5] = test system: CA1, CA3 and CA4 hippocampal neurons; settings: 0.25 mg/kg daily, multiple time points up to 14 days (Paterson et al., 1997); cited from earlier work
[6] = pH about 3-5 vs pH about 7; cited from earlier work

C#CCN(C)[C@H](C)Cc1ccccc1 [(−)-deprenyl, R-(−)-N,α-Dimethyl-N-2-propynyl phenethylamine]
AST cell numbers compared to those in BM (ASTs; experimental series II): 132% | AST cell numbers compared to those in BM (ASTs; experimental series-I): 570% | O-2A cell numbers compared to those in BM (O-2As; experimental series II): 176% | O-2A cell numbers compared to those in BM (O-2As; experimental series-I): 244% | PROL cell numbers compared to those in BM (PROLs; experimental series II): 275% | PROL cell numbers compared to those in BM (PROLs; experimental series-I): 739.2% | OL cell numbers compared to those in BM (OLs; experimental series II): 291% | OL cell numbers compared to those in BM (OLs; experimental series-I): 565.0% | number of ApopTag positive nuclei (oligodendroglial cells [1]; 10^−9 M added to IM): did not significantly change the number of ApopTag™ positive nuclei | number of ApopTag positive nuclei (oligodendroglial cells [1]; 10^−9 M added to base media (BM)): significantly decreased the numbers of ApopTag™ nuclei in both experimental series | number of ApopTag positive nuclei (oligodendroglial cells [1]; 10^−9 M added to base media (BM), listed as (−)-Deprenyl): reduced the incidence of apoptotic nuclei at all the time points | DNA laddering on electrophoresis gels (oligodendroglial cells [2]): did not show detectable laddering | band densities for MBP, CNP-ase I and PLP compared to IM [3]: exceed those for IM | immunodensity of marker proteins (MBP, PLP, GC, CNPase-I) compared to BM [3]: marked increase in immunodensity compared to BM | mitochondrial CMTMR fluorescence distributions (ΔψM) in ASTs, PROLs and OLs [4]: not significantly different to those found for IM; also recorded: prevented the decrease in ΔψM | CA1 hippocampal neuronal survival (CA1 hippocampal neurons; 0.25 mg/kg, days 3 or 7 (Lahtinen et al., 1997)): significant increase in survival at both time points | CA1 hippocampal neuronal survival (CA1 hippocampal neurons; 10 mg/kg daily from 1-2 hours after 5 minutes occlusion, day 4 (Ballabriga et al., 1997)): no increase in survival | CA1, CA3 and CA4 hippocampal neuronal survival [5]: markedly significant increases in neuronal survival | stability depending on pH of the medium [6]: more stable at a pH in the range of about 3-5 than at a pH of about 7

— patent publication US6492427B2, “Methods for treating multiple sclerosis” (priority 1998, dated 2002)
